The conditions of series [1]: in vivo; cited from earlier work.
For series [2] the following is noted: in vivo; cited from earlier work. The source holds these as a separate data set.
Series [3] has as its system persistently symptomatic concussion patients. Put plainly: Phase 2 study interim analysis, efficacy endpoints overall. It is filed as in vivo, human. On the procedure: A Phase 2 study of treatment of persistently symptomatic concussion patients with ghrelin (OXE-103) was undertaken at the University of Kansas Medical Center generally as described in Example 1. The interim results are reported herein (FIG. 1).
A study to treat patients with sub-acute concussion using a pharmaceutical formulation of ghrelin (OXE-103) was performed. The completed results from treatment group of 10 patients were compared to a 3 patient placebo group receiving standard of care (SoC). Additionally, two other patients are currently undergoing the treatment arm of the study at the time of the interim report. The study was performed in a randomized, double blind fashion and compared using self-report symptom scoring, quality of life questionnaires, computerized cognitive testing assessing executive function, memory and processing speed, and accelerometer-based balance scoring.
Efficacy endpoints for the interim study were: PCSS—22 symptom concussion scoring scale, QOLIBRI—WHO TBI specific Quality of Life after Brain Injury, and BRAIN CHECK—digital assessment of cognition, balance, visual changes (510K FDA approved).
Feedback from clinicians indicated a 20% decrease in concussion symptoms would be considered clinically significant improvement. Graphs of QOLIBRI (FIG. 3A), PCSS—total severity score (FIG. 4A), PGAS (FIG. 5A), 4MB3S (FIG. 6A), and PCSS number of symptoms (FIG. 7A) show a black line for 20% change from baseline. The graphs in FIGS. 3A, 4A, 5A, 6A, and 7A show average scores per time point for each endpoint at days 1, 4, 8, 11, 15, 21 and 44 for both the treatment and control (SoC) arms. For PCSS, number of symptoms, PGAS, and 4MBS, a patient is considered to have responded to treatment if percent change is less than or equal to −20% compared to baseline. For QOLIBRI, a patient is considered to have responded to treatment if percent change is greater than or equal to 20% compared to baseline.

These results are taken from patent publication US20260077018A1, “TREATMENT OF MILD TRAUMATIC BRAIN INJURY” (OXEIA BIOPHARMACEUTICALS, INC., priority 2022, published 2026).

No end group written: not given here. *: point of attachment. Octanoyl = CCCCCCCC(=O)*

Regarding “ghrelin (GSS(Octanoyl)FLSPEHQRVQQRKESKKPPAKLQPR; UniProt Q9UBU3 24-51, looked up) [OXE-103, naturally occurring peptide comprising 28 amino acids that include an N-octanoyl group at the 3-position of serine]”, in series [1], the “effects of long term use” value is “increased appetite, weight gain, and adiposity”; the “safety in previous studies” value was “quite safe”. In series [2], the serum half-life entry is reported as “about 30 minutes”. In series [3] (across study endpoints), the “durability of treatment effects” value is “at least 44 days”. Moreover, in series [3] (both endpoints, by 40 days after start of treatment), the “Responder Rate (RR)” value is given as 80%. Besides, in series [3] (persistently effected population), the “onset of treatment effect” value was 8 to 10 days. In series [3] (within 8-10 days of treatment, interim time point), the improvement result is “greater than 20%”.
